Results published in BindingDB's records for doi:10.1016/j.bmcl.2012.11.020 (Glaxosmithkline, 2012).

Molecular target: Serine/threonine-protein kinase B-raf (Homo sapiens, UniProt P15056)
Experiment: Inhibition of B-Raf (unknown origin) expressed in mouse 3T3 cells co-expressing FLAG-tagged MEK1 assessed as inhibition of MEK1 phosphorylation after 2 hrs by ELISA

Sequence of Serine/threonine-protein kinase B-raf (P15056 whole entry): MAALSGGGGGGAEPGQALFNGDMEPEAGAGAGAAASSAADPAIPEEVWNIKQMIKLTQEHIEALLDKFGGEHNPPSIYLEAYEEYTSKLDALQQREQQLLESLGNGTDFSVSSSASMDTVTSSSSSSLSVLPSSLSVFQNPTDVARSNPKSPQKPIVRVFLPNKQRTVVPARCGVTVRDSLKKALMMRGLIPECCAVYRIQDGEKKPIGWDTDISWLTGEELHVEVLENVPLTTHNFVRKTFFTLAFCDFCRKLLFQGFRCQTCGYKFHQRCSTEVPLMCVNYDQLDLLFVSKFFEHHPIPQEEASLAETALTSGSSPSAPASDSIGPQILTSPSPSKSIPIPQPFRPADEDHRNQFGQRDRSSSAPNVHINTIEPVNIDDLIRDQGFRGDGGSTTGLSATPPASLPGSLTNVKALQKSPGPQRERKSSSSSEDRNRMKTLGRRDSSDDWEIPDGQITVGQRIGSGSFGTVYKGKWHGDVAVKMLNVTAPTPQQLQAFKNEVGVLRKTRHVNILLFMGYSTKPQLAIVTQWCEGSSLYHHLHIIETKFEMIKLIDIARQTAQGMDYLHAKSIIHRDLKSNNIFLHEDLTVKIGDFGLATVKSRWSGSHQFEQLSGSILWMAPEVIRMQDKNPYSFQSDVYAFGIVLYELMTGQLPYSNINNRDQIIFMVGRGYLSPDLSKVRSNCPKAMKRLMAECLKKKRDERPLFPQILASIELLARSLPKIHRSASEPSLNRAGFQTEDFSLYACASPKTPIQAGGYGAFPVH

| IC50 [µM] | SMILES |
| --- | --- |
| 4.1 | Nc1ncc(-c2cccnc2)c2scc(-c3cccc(NC(=O)NC4CCCCC4)c3)c12 |
| > 10 | Nc1ncc(-c2cccnc2)c2scc(-c3cccc(NC(=O)C4CCCCC4)c3)c12 |
| 0.7 | COc1cccc(NC(=O)Nc2cccc(-c3csc4c(-c5cccnc5)cnc(N)c34)c2)c1 |
| > 10 | Nc1ncc(-c2cccnc2)c2scc(-c3cccc(NC(=O)Nc4ccc(OCc5ccccc5)cc4)c3)c12 |
| > 10 | Cc1noc(C)c1NC(=O)Nc1cccc(-c2csc3c(-c4cccnc4)cnc(N)c23)c1 |
